# Measured values taken from patent publication US11807625B2, “Capsid inhibitors for the prevention of HIV” (Gilead Sciences, Inc., priority 2019, dated 2023).
# Several values for one entry are separate records, joined by “and”; a condition that tells them apart may be missing. Equal values may be shown once.
# What was measured:
# [1] = Plasma concentration vs. time profile of Compound Ib in rhesus after single subcutaneous dose (SHIV challenge study); format: in vivo, rhesus macaques
# Procedure: Mean±s.d. values are shown.
# PK analysis details: Rhesus plasma samples were stored frozen at −80° C. and analyzed using high resolution mass spectrometry (HRMS) with electrospray ionization in the positive mode. Quantification was performed using an accurate mass ([M+H]+) of 958.1853 for a compound of Formula (Ib) (“Compound Ib”) and 758.3270 for the internal standard, respectively.
# [2] = test system: SHIV; experiment: PrEP efficacy in rhesus repeat intrarectal SHIV challenge model, plasma viral load by qRT-PCR; format: in vivo, rhesus macaques; conditions: for Plasma SHIV: rhesus, individual animals
# Procedure: The PrEP efficacy a compound of Formula (Ib) in rhesus was evaluated using a repeat intrarectal (IR) challenge model.
# This study also established a correlation between exposure and protection using a single high-dose administration of a compound of Formula (Ib) vs. placebo, followed by multiple weekly IR challenges until infection occured. In this study, multiple challenges overlapped with clinically-relevant drug levels. The supratherapeutic IQs (inhibitory quotients) were assessed to maximize protection and achieve proof-of-concept in case rectal tissue levels were much lower than in plasma. Lower doses of a compound of Formula (Ib), or a pharmaceutically acceptable salt thereof, were assessed to capture more challenges at clinically relevant exposures, reducing the number of IR challenges, and facilitating a drug washout phase. The washout phase lasted for at least 20 weeks. In some embodiments, the washout phase lasted for 20-25 weeks. The washout phase of these studies was important to enable the administered drug concentrations to decline sufficiently below those that were expected to be clinically suppressive in order to confirm that animals that remained aviremic in the study did so because they were protected from infection as opposed to being infected following one or more of the viral challenges but remaining suppressed by prolonged therapeutic concentrations of the long-acting drug in plasma and/or tissue compartments.
# FIG. 3 is a schematic of the study using a compound of Formula (Ib) in adult rhesus macaques (1:1 male/female ratio). Eight animals per group were treated with a single dose of placebo control, 150 mg/kg of a compound of Formula (Ib) (“Compound 1b”) or 300 mg/kg of a compound of Formula (Ib) (“Compound 1b”) on week 0 and allowed to wash out over time. All animals were challenged intrarectally with SHIV weekly beginning on week 1 until detectable viremia or up to a maximum of 15 challenges. SHIV challenge titer was increased over time from 10 TCID50 to 100 TCID50 through week 15 as depicted. Animal SHIV infection rate was assessed by weekly plasma viral load monitoring by qRT-PCR through study week 20. The protective efficacy of a compound of Formula (Ib) (“Compound 1b”) was established by comparing to infection rate observed in the placebo control group using the Cox proportional hazards model analysis.
# Viral infection was scored one week after each SHIV challenge using a quantitative RT-PCR assay. Infected animals were defined as having a viral load >200 copies per mL plasma and the corresponding plasma viral load values are bolded.
# Viral load measurements details: RNA was extracted from plasma using a QIAcube HT and the QIAcube 96 Cador pathogen HT kit (Qiagen). Gag RNA standards were generated using the AmpliCapMax™ T7 High Yield Message Maker Kit (Cell Script) and purified with RNA clean and concentrator kit (Zymo Research). Log dilutions of RNA were included with each assay run. Reverse transcription of both standards and samples was performed using Superscript III VILO (Invitrogen). Quantitative PCR was performed using the Quantstudio 6 Flex system with TaqMan™ Fast Advanced Master Mix (Applied Biosystems). Primer sequences were F-[…] (SEQ ID NO. 1) and R-[…] (SEQ ID NO. 2). The probe sequence was […] (SEQ ID NO. 3), and probe was labeled with FAM and BHQ (Biosearch Technologies). Viral loads were calculated as gag copies per mL.
# [3] = test system: SHIV-162P3; experiment: 7-day antiviral assay (p24 ELISA endpoint) in rhesus PBMCs infected with SHIV-162P3; format: cell-based
# Procedure: The mean 95% effective concentration (EC95) of 1.91±0.16 nM for a compound of Formula (Ib) (“Compound Ib”) was determined using a 7-day antiviral assay (p24 ELISA endpoint) in rhesus peripheral blood mononuclear cells (PBMCs) infected with SHIV-162P3. A competitive equilibrium dialysis assay was used to quantify rhesus plasma protein binding to Compound Ib, resulting in an inhibitory quotient (IQ) equal to Compound Ib plasma concentrations divided by a mean rhesus plasma protein-binding-adjusted EC95 (paEC95) value of 30.2±2.5 nM.
structure (smiles),measurement,setting,value
"CC(C)(C#Cc1ccc(-c2ccc(Cl)c3c(NS(=O)(=O)C4CC4)nn(CC(F)F)c23)c([C@H](Cc2cc(F)cc(F)c2)NC(=O)Cn2nc(C(F)F)c3c2C(F)(F)[C@@H]2C[C@H]32)n1)S(C)(=O)=O [Compound Ib, N—((S)-1-(3-(4-chloro-3-(cyclopropanesulfonamido)-1-(2,2-difluoroethyl)-1H-indazol-7-yl)-6-(3-methyl-3-(methylsulfonyl)but-1-yn-1-yl)pyridin-2-yl)-2-(3,5-difluorophenyl)ethyl)-2-((3b S,4aR)-3-(difluoromethyl)-5,5-difluoro-3b,4,4a,5-tetrahydro-1H-cyclopropa[3,4]cyclopenta[1,2-c]pyrazol-1-yl)acetamide]",Plasma Compound Ib Concentrations,"[1]; 150 mg/kg SC day 0, individual animals, study week 1, SHIV dose 10 x TCID50",3112 nM and 2516 nM and 762 nM and 882 nM
same,Plasma Compound Ib Concentrations,"[1]; 150 mg/kg SC day 0, individual animals, study week 2, SHIV dose 10 x TCID50",2108 nM and 2027 nM and 1059 nM and 1219 nM
same,Plasma Compound Ib Concentrations,"[1]; 150 mg/kg SC day 0, individual animals, study week 3, SHIV dose 10 x TCID50",750 nM and 1371 nM and 334 nM and 209 nM
same,Plasma Compound Ib Concentrations,"[1]; 150 mg/kg SC day 0, individual animals, study week 4, SHIV dose 10 x TCID50",538 nM and 448 nM and 225 nM and 165 nM
same,Plasma Compound Ib Concentrations,"[1]; 150 mg/kg SC day 0, individual animals, study week 5, SHIV dose 10 x TCID50",333 nM and 449 nM and 141 nM and 113 nM
same,Plasma Compound Ib Concentrations,"[1]; 150 mg/kg SC day 0, individual animals, study week 6, SHIV dose 10 x TCID50",164 nM and 313 nM and 82 nM and 78 nM
same,Plasma Compound Ib Concentrations,"[1]; 150 mg/kg SC day 0, individual animals, study week 7, SHIV dose 10 x TCID50",139 nM and 250 nM and 69 nM and 46 nM
same,Plasma Compound Ib Concentrations,"[1]; 150 mg/kg SC day 0, individual animals, study week 8, SHIV dose 10 x TCID50",118 nM and 160 nM and 80 nM and 56 nM and 82 nM
same,Plasma Compound Ib Concentrations,"[1]; 150 mg/kg SC day 0, individual animals, study week 9, SHIV dose 33 x TCID50",54 nM and 140 nM and 58 nM and 14 nM
same,Plasma Compound Ib Concentrations,"[1]; 300 mg/kg SC day 0, individual animals, study week 1, SHIV dose 10 x TCID50",5528 nM and 3174 nM and 2251 nM and 1572 nM and 7818 nM and 2215 nM and 1944 nM
same,Plasma Compound Ib Concentrations,"[1]; 300 mg/kg SC day 0, individual animals, study week 2, SHIV dose 10 x TCID50",1944 nM and 2466 nM and 1332 nM and 2066 nM and 3983 nM and 1949 nM and 1830 nM
same,Plasma Compound Ib Concentrations,"[1]; 300 mg/kg SC day 0, individual animals, study week 3, SHIV dose 10 x TCID50",942 nM and 1003 nM and 894 nM and 508 nM and 1654 nM and 632 nM and 742 nM
same,Plasma Compound Ib Concentrations,"[1]; 300 mg/kg SC day 0, individual animals, study week 4, SHIV dose 10 x TCID50",863 nM and 664 nM and 530 nM and 359 nM and 725 nM and 416 nM and 362 nM
same,Plasma Compound Ib Concentrations,"[1]; 300 mg/kg SC day 0, individual animals, study week 5, SHIV dose 10 x TCID50",402 nM and 487 nM and 395 nM and 266 nM and 523 nM and 268 nM and 377 nM
same,Plasma Compound Ib Concentrations,"[1]; 300 mg/kg SC day 0, individual animals, study week 6, SHIV dose 10 x TCID50",370 nM and 282 nM and 382 nM and 161 nM and 242 nM and 273 nM and 350 nM
same,Plasma Compound Ib Concentrations,"[1]; 300 mg/kg SC day 0, individual animals, study week 7, SHIV dose 10 x TCID50",180 nM (2×) and 261 nM and 339 nM and 132 nM and 158 nM and 307 nM
same,Plasma Compound Ib Concentrations,"[1]; 300 mg/kg SC day 0, individual animals, study week 8, SHIV dose 10 x TCID50",209 nM and 240 nM and 319 nM and 140 nM and 378 nM and 155 nM and 226 nM
same,Plasma Compound Ib Concentrations,"[1]; 300 mg/kg SC day 0, individual animals, study week 9, SHIV dose 33 x TCID50",127 nM and 131 nM and 83 nM and 88 nM and 177 nM and 104 nM and 122 nM
same,concentration at 12 weeks,"[1]; both sexes, rhesus monkey, plasma, subcutaneous, 300 mg/kg, 300 mg/kg SC day 0, individual animals, study week 12, SHIV dose 100 x TCID50, read-out: Plasma Compound Ib Concentrations",83 nM
same,concentration at 15 weeks,"[1]; both sexes, rhesus monkey, plasma, subcutaneous, 300 mg/kg, 300 mg/kg SC day 0, individual animals, study week 15, SHIV dose 100 x TCID50, read-out: Plasma Compound Ib Concentrations",45 nM
same,Plasma SHIV,"[2]; 150 mg/kg SC day 0, study week 1, intrarectal SHIV dose 10 x TCID50",<200 copies/mL
same,Plasma SHIV,"[2]; 150 mg/kg SC day 0, study week 2, intrarectal SHIV dose 10 x TCID50",<200 copies/mL
same,Plasma SHIV,"[2]; 150 mg/kg SC day 0, study week 3, intrarectal SHIV dose 10 x TCID50",<200 copies/mL
same,Plasma SHIV,"[2]; 150 mg/kg SC day 0, study week 4, intrarectal SHIV dose 10 x TCID50",<200 copies/mL
same,Plasma SHIV,"[2]; 150 mg/kg SC day 0, study week 5, intrarectal SHIV dose 10 x TCID50",<200 copies/mL
same,Plasma SHIV,"[2]; 150 mg/kg SC day 0, study week 6, intrarectal SHIV dose 10 x TCID50",<200 copies/mL
same,Plasma SHIV,"[2]; 150 mg/kg SC day 0, study week 7, intrarectal SHIV dose 10 x TCID50",<200 copies/mL
same,Plasma SHIV,"[2]; 150 mg/kg SC day 0, study week 8, intrarectal SHIV dose 10 x TCID50",<200 copies/mL
same,Plasma SHIV,"[2]; 150 mg/kg SC day 0, study week 9, intrarectal SHIV dose 33 x TCID50",<200 copies/mL
same,Plasma SHIV,"[2]; 150 mg/kg SC day 0, study week 10, intrarectal SHIV dose 33 x TCID50",<200 copies/mL
same,Plasma SHIV,"[2]; 300 mg/kg SC day 0, study week 1, intrarectal SHIV dose 10 x TCID50",<200 copies/mL
same,Plasma SHIV,"[2]; 300 mg/kg SC day 0, study week 2, intrarectal SHIV dose 10 x TCID50",<200 copies/mL
same,Plasma SHIV,"[2]; 300 mg/kg SC day 0, study week 3, intrarectal SHIV dose 10 x TCID50",<200 copies/mL
same,Plasma SHIV,"[2]; 300 mg/kg SC day 0, study week 4, intrarectal SHIV dose 10 x TCID50",<200 copies/mL
same,Plasma SHIV,"[2]; 300 mg/kg SC day 0, study week 5, intrarectal SHIV dose 10 x TCID50",<200 copies/mL
same,Plasma SHIV,"[2]; 300 mg/kg SC day 0, study week 6, intrarectal SHIV dose 10 x TCID50",<200 copies/mL
same,Plasma SHIV,"[2]; 300 mg/kg SC day 0, study week 7, intrarectal SHIV dose 10 x TCID50",<200 copies/mL
same,Plasma SHIV,"[2]; 300 mg/kg SC day 0, study week 8, intrarectal SHIV dose 10 x TCID50",<200 copies/mL
same,Plasma SHIV,"[2]; 300 mg/kg SC day 0, study week 9, intrarectal SHIV dose 33 x TCID50",<200 copies/mL
same,Plasma SHIV,"[2]; 300 mg/kg SC day 0, study week 10, intrarectal SHIV dose 33 x TCID50",<200 copies/mL
same,infection in relation to Compound Ib plasma exposure,"[2]; 150 or 300 mg/kg single SC, weekly intrarectal challenges with escalating SHIV doses, FIGS. 6B, 6C",became infected only after the viral challenges were administered at Compound Ib plasma exposures well below the clinical IQ exposure range of 4 to 9
same,mean 95% effective concentration (EC95),[3],1.91 ± 0.16 nM
